Our source for the IC50 values is ChEMBL document CHEMBL1159183, “Non-peptide itam mimics as ZAP-70 antagonists” (Bioorg Med Chem Lett, 1997).

One may read the IC50 as the concentration that inhibits the measured activity by half. Lower therefore signals inhibition by little substance.

Test [1] has as its target T1, Tyrosine-protein kinase ZAP-70 (Homo sapiens, UniProt P43403).
T1 sequence (P43403 whole entry): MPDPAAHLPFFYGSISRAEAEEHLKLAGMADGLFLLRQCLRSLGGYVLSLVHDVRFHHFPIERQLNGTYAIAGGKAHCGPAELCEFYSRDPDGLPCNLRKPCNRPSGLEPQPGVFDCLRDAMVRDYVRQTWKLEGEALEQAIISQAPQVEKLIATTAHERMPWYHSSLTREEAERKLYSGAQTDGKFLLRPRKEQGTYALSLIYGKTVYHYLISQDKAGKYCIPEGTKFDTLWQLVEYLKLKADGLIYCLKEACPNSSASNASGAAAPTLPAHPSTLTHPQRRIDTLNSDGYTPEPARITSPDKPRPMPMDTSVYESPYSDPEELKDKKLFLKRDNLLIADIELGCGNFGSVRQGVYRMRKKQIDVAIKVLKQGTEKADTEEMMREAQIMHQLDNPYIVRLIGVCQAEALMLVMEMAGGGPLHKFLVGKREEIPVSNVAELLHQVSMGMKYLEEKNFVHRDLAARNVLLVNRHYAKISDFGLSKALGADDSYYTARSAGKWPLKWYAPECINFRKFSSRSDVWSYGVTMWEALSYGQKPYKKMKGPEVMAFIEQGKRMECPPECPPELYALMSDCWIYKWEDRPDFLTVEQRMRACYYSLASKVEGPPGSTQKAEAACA
Kind of test: Antagonistic activity against SH2 domain of Zeta-chain (TCR) associated protein kinase, ZAP-70. In kind it is functional.

For the next test, the system named is Jurkat. The test is described as follows: Cellular activity was measured by an IL-2 luciferase reporter gene assay on a Jurkat human T cell line activated by anti-CD28 and anti-TCR antibodies. In kind it is functional, cell-based. A general note: A reporter such as luciferase makes a cellular process visible.

For the compound `CCCCCC(=O)N(Cc1ccc(C(F)(F)P(=O)(O)O)cc1)[C@H]1CC[C@H]2[C@@H]3CCc4cc(OCCC)ccc4[C@H]3CC[C@]12C`, the concentration for half-maximal inhibition (IC50) in test [1] stood at 1900 nM; with Jurkat it was 900 nM.

Regarding `CCCCCC(=O)N(Cc1ccc(CP(=O)(O)O)cc1)[C@H]1CC[C@H]2[C@@H]3CCc4cc(OCCCOc5ccc6c(c5)CC[C@@H]5[C@@H]6CC[C@]6(C)[C@@H](N(Cc7ccc(CP(=O)(O)O)cc7)C(=O)CCCCC)CC[C@@H]56)ccc4[C@H]3CC[C@]12C`, the half-inhibitory concentration (IC50) in test [1] came to 320 nM; in the test with Jurkat, 26500 nM.

With `CCCCCC(=O)N(Cc1ccc(C(F)(F)P(=O)(O)O)cc1)[C@H]1CC[C@H]2[C@@H]3CCc4cc(OCCCOc5ccc6c(c5)CC[C@@H]5[C@@H]6CC[C@]6(C)[C@@H](N(Cc7ccc(C(F)(F)P(=O)(O)O)cc7)C(=O)CCCCC)CC[C@@H]56)ccc4[C@H]3CC[C@]12C`, the half-inhibitory concentration (IC50) in test [1] is 250 nM; with Jurkat, 1900 nM.

In the case of `CCCCCC(=O)N(Cc1ccc(CP(=O)(O)O)cc1)[C@H]1CC[C@H]2[C@@H]3CCc4cc(OCCC)ccc4[C@H]3CC[C@]12C`, the IC50 is 3200 nM in test [1] and 3600 nM with Jurkat.
